Experimental data published in patent US20260001871A1, “TRIAZOLE DERIVATIVES AS MODULATORS OF MAS-RELATED G-PROTEIN RECEPTOR D” (ESCIENT PHARMACEUTICALS, INC., priority 2022, published 2026).

Target: human MRGPRD (Homo sapiens, UniProt Q8TDS7)
Experiment: MRGPRD antagonist activity, IP-One HTRF assay in CHO cells stably expressing human MRGPRD (versus 100 μM β-Alanine agonist)
Assay type: cell-based
Description: Chinese Hamster Ovary (CHO) cells stably expressing human MRGPRD (Eurofins, San Diego CA) were plated in a 384-well plate at 20,000 cells per well in 12 μL of Optimem (Fisher Scientific 11-058-021). Plates were kept in the incubator at 37° C. overnight. Antagonists were solubilized at a concentration of 10 mM in DMSO, and the agonists were solubilized to stock concentrations of either 50 mM in H2O (β-Alanine) or 10 mM in DMSO (all others) and then diluted in assay buffer (final concentrations of 5.7 mM Tris-HCl, 43 mM NaCl, 50 mM LiCl, pH=8). The concentration of DMSO was normalized across the plate. Antagonists were added to the plate using a Tecan D300 Digital Dispenser at nanoliter/picoliter volumes and 2 μL of agonists in assay buffer were added to each well for a final assay volume of 14 μL. Plates were covered and incubated for 1 h at 37° C. and then for 1 h at room temperature. IP-1 standards and HTRF detection reagents were added according to an IP-One—Gq Kit purchased from Cisbio (part number 621PAPEJ) and incubated in the dark for 1 h at room temperature. Assay plates were read on either a Molecular Devices SpectraMax iD5 plate reader or a BMG ClarioStar plate reader. The HTRF ratio was calculated form the raw data and graphed using GraphPad Prism to calculate IC50 values. Data are expressed as average IC50 values and average percent antagonism calculated as a percent of the maximum efficacy response. For these studies, the variability of the data was assessed by determining the standard error of mean (SEM).
The activity ranges are denoted as follows: “+++++” denotes antagonist activity<100 nM; “++++” denotes antagonist activity between 100 and 500 nM; “+++” denotes activity between 500 and 1000 nM; “++” denotes activity between 1000 and 3000 nM; and “+” denotes activity>3000 nM.

Sequence of human MRGPRD (Q8TDS7 whole entry): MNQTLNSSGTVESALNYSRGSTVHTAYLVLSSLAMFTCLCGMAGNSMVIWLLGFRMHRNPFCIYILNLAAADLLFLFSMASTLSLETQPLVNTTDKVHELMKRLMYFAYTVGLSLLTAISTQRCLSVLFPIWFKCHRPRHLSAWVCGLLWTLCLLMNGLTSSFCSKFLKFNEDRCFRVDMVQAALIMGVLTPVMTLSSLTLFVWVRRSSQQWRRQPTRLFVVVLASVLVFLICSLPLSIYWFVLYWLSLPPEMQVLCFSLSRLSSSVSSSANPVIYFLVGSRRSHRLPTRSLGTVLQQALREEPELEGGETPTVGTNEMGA

| Structure (SMILES) | IC50 |
| --- | --- |
| O=C(Nc1ccncc1)c1nnn(-c2ccc(-c3ccc(Cl)cc3)cc2)c1C1CC1 [Compound 7-90] | 100 to 500 nM |
| CCc1cccc(-c2ccc(-n3nnc(C(=O)Nc4ccncc4)c3C3CC3)cc2)c1 [Compound 7-91] | 100 to 500 nM |
| CCn1nccc1-c1ccc(-n2nnc(C(=O)Nc3ccncc3)c2C2CC2)cc1 [Compound 7-92] | 100 to 500 nM |
| CS(=O)(=O)c1ccc(-c2ccc(-n3nnc(C(=O)Nc4ccncc4)c3C3CC3)cc2)cc1 [Compound 7-93] | 100 to 500 nM |
| O=C(Nc1ccncc1)c1nnn(-c2ccc(-c3n[nH]c4c3CCCC4)cc2)c1C1CC1 [Compound 7-94] | 100 to 500 nM |
| Cc1ccc(CNC(=O)c2nnn(-c3ccc(-c4ccc(C#N)cc4C)cc3)c2C2CC2)cn1 [Compound 7-95] | 100 to 500 nM |
| Cc1ccccc1-c1ccc(-n2nnc(C(=O)Nc3ccncc3)c2C2CC2)cc1 [Compound 7-96] | 100 to 500 nM |
| CCn1cc(-c2ccc(-n3nnc(C(=O)Nc4ccncc4)c3C3CC3)cc2)cn1 [Compound 7-97] | 100 to 500 nM |
| CN(C)c1ccc(-c2ccc(-n3nnc(C(=O)Nc4ccncc4)c3C3CC3)cc2)cc1 [Compound 7-98] | 100 to 500 nM |
| O=C(Nc1ccncc1)c1nnn(-c2ccc(-c3n[nH]c4ncccc34)cc2)c1C1CC1 [Compound 7-99] | 100 to 500 nM |
| Cc1c(-c2ccc(-n3nnc(C(=O)Nc4ccncc4)c3C3CC3)cc2)c(CO)nn1C [Compound 7-100] | 100 to 500 nM |
| O=C(Nc1ccncc1)c1nnn(-c2ccc(-c3cccc(Cl)c3)cc2)c1C1CC1 [Compound 7-101] | 100 to 500 nM |
| Cc1n[nH]c(C)c1-c1ccc(-n2nnc(C(=O)Nc3ccncc3)c2C2CC2)cc1 [Compound 7-102] | 100 to 500 nM |
| O=C(Nc1ccncc1)c1nnn(-c2ccc(-c3ccn(-c4ccccc4)n3)cc2)c1C1CC1 [Compound 7-103] | 100 to 500 nM |
| CC(=O)c1ccc(-c2ccc(-n3nnc(C(=O)Nc4ccncc4)c3C3CC3)cc2)cc1F [Compound 7-104] | 100 to 500 nM |
| O=C(Nc1ccncc1)c1nnn(-c2ccc(-c3cnoc3)cc2)c1C1CC1 [Compound 7-105] | 100 to 500 nM |

| Structure (SMILES) | IC50 |
| --- | --- |
| CC(C)n1nccc1-c1ccc(-n2nnc(C(=O)Nc3ccncc3)c2C2CC2)cc1 [Compound 7-106] | 100 to 500 nM |
| O=C(Nc1ccncc1)c1nnn(-c2ccc(-c3cccc(CC(F)(F)F)c3)cc2)c1C1CC1 [Compound 7-107] | 100 to 500 nM |
| Cc1ccc(CNC(=O)c2nnn(-c3ccc(-c4cnn(Cc5ccccc5)c4)cc3)c2C2CC2)cn1 [Compound 7-108] | 100 to 500 nM |
| Cn1nc(C2CC2)cc1-c1ccc(-n2nnc(C(=O)Nc3ccncc3)c2C2CC2)cc1 [Compound 7-109] | 100 to 500 nM |
| Cc1cn(C)nc1-c1ccc(-n2nnc(C(=O)Nc3ccncc3)c2C2CC2)cc1 [Compound 7-110] | 100 to 500 nM |
| Cn1nc(-c2ccc(-n3nnc(C(=O)Nc4ccncc4)c3C3CC3)cc2)cc1-c1ccccc1 [Compound 7-111] | 100 to 500 nM |
| COc1ccccc1-c1ccc(-n2nnc(C(=O)Nc3ccncc3)c2C2CC2)cc1 [Compound 7-112] | 100 to 500 nM |
| Cc1cccc(-c2ccc(-n3nnc(C(=O)Nc4ccncc4)c3C3CC3)cc2)c1 [Compound 7-113] | 500 to 1000 nM |
| O=C(Nc1ccncc1)c1nnn(-c2ccc(C3=CCOCC3)cc2)c1C1CC1 [Compound 7-114] | 500 to 1000 nM |
| Cc1nc(-c2ccc(-n3nnc(C(=O)Nc4ccncc4)c3C3CC3)cc2)sc1C [Compound 7-115] | 500 to 1000 nM |
| O=C(Nc1ccncc1)c1nnn(-c2ccc(-c3ccnn3C3CCC3)cc2)c1C1CC1 [Compound 7-116] | 500 to 1000 nM |
| CC(O)c1cccc(-c2ccc(-n3nnc(C(=O)Nc4ccncc4)c3C3CC3)cc2)c1 (stereo not shown) [Compound 7-117] | 500 to 1000 nM |
| Cc1nn(C(F)F)cc1-c1ccc(-n2nnc(C(=O)Nc3ccncc3)c2C2CC2)cc1 [Compound 7-118] | 500 to 1000 nM |
| Cc1c[nH]nc1-c1ccc(-n2nnc(C(=O)Nc3ccncc3)c2C2CC2)cc1 [Compound 7-119] | 500 to 1000 nM |
| Cc1c(-c2ccc(-n3nnc(C(=O)Nc4ccncc4)c3C3CC3)cc2)c(C#N)nn1C [Compound 7-120] | 500 to 1000 nM |
